Results on ten molecules are retold here after ChEMBL document CHEMBL3792355, “Novel pyrazole derivatives with oxa/thiadiazolyl, pyrazolyl moieties and pyrazolo[4,3-d]-pyrimidine derivatives as potential antimicrobial and anticancer agents” (Bioorg Med Chem Lett, 2016).

Converted amounts (≈) assume the structure as drawn.

The subject of test [1] is Lactococcus lactis. Nature of the test: Antimicrobial activity against Streptococcus lactis ATCC 14591 at 1 mg/ml incubated for 24 hrs by cup diffusion assay. The test is classed as functional. The following applies: ATCC 14591, 24 h, read-out: DIZ.
In test [2] the test system is Staphylococcus aureus. The test can be described thus: Antimicrobial activity against Staphylococcus aureus ATCC 25923 incubated for 24 hrs by CLSI/NCCLS protocol based method. The format is functional. As to conditions: ATCC 25923, 24 h.
The test system of test [3] is Pseudomonas aeruginosa. The test can be described thus: Antimicrobial activity against Pseudomonas aeruginosa ATCC 27853 at 1 mg/ml incubated for 24 hrs by cup diffusion assay. The format is functional. The following applies: ATCC 27853, 24 h, read-out: DIZ.
Test [4] deals with Staphylococcus aureus. The test can be described thus: Antimicrobial activity against Staphylococcus aureus ATCC 25923 at 1 mg/ml incubated for 24 hrs by cup diffusion assay. The format is functional. The following applies: ATCC 25923, 24 h, read-out: DIZ.
The test system of test [5] is Candida albicans. The test can be described thus: Antimicrobial activity against Candida albicans ATCC 14154 incubated for 24 hrs by CLSI/NCCLS protocol based method. The test is classed as functional.
The test system of test [6] is Pseudomonas aeruginosa. The test can be described thus: Antimicrobial activity against Pseudomonas aeruginosa ATCC 27853 incubated for 24 hrs by CLSI/NCCLS protocol based method. The test is classed as functional. As to conditions: ATCC 27853, 24 h.
The next test concerns HepG2. Nature of the test: cells. As to conditions: Homo sapiens, HepG2, 48 h.
The test system of test [7] is Candida albicans. The test can be described thus: Antimicrobial activity against Candida albicans ATCC 14154 at 1 mg/ml incubated for 24 hrs by cup diffusion assay. The test is classed as functional. As to conditions: for zone of inhibition at 1000 µg/mL: ATCC 14154, 24 h, read-out: DIZ.
Test [8] has as its system Aspergillus flavus. The test can be described thus: Antimicrobial activity against Aspergillus flavus ATCC 23554 at 1 mg/ml incubated for 24 hrs by cup diffusion assay. The format is functional. The following applies: for zone of inhibition at 1000 µg/mL: ATCC 23554, 24 h, read-out: DIZ.
The next test deals with MCF7. The test can be described thus: Growth inhibition of human MCF7 cells incubated for 48 hrs by MTT assay. As to conditions: MCF7, 48 h. The test is classed as functional, cell-based. (Tetrazolium assays rely on reduction of a dye to a coloured formazan, in cell work by metabolically active cells.)
Test [9] has as its system Escherichia coli. Nature of the test: Antimicrobial activity against Escherichia coli ATCC 25922 incubated for 24 hrs by CLSI/NCCLS protocol based method. The test is classed as functional. The following applies: ATCC 25922, 24 h.
In test [10] the test system is Escherichia coli. Nature of the test: Antimicrobial activity against Escherichia coli ATCC 25922 at 1 mg/ml incubated for 24 hrs by cup diffusion assay. The format is functional. The following applies: ATCC 25922, 24 h, read-out: DIZ.
The test system of test [11] is Lactococcus lactis. The test can be described thus: Antimicrobial activity against Streptococcus lactis ATCC 14591 incubated for 24 hrs by CLSI/NCCLS protocol based method. The format is functional. The following applies: ATCC 14591, 24 h.
In another test the test system is HT-29. The test can be described thus: cells. As to conditions: Homo sapiens, HT-29, 48 h.
The test system of test [12] is Aspergillus flavus. The test can be described thus: Antimicrobial activity against Aspergillus flavus ATCC 23554 incubated for 24 hrs by CLSI/NCCLS protocol based method. The test is classed as functional.

As for `Cc1nc2c(-c3ccc(Cl)cc3)n[nH]c2c2nnnn12`, the zone of inhibition at 1000 µg/mL in the test with Lactococcus lactis [1] came to 20 mm; in the test on Pseudomonas aeruginosa [3] it was 8 mm; in the test on Staphylococcus aureus [4] it was 18 mm; with Candida albicans [7], 22 mm; in the test with Aspergillus flavus [8], 26 mm; in the test with Escherichia coli [10] it was 10 mm. In addition, the MIC (as a rule, the smallest concentration in the dilution series that meets the test's criterion for growth inhibition) worked out at 20 µg/mL (≈ 70 µM) against Staphylococcus aureus [2]; 22 µg/mL (≈ 77 µM) against Candida albicans [5] (ATCC 14154, 24 h); 15 µg/mL (≈ 52.5 µM) in the test on Pseudomonas aeruginosa [6]; 10 µg/mL (≈ 35 µM) in the test with Escherichia coli [9]; 10 µg/mL (≈ 35 µM) against Lactococcus lactis [11]. Besides, the IC50 (as a rule, the point on the concentration scale where inhibition reaches its midpoint) was 360 nM in the test with HepG2, 130 nM in the test on MCF7 and 290 nM in the test with HT-29.

`Cc1nc(Cl)c2[nH]nc(-c3ccc(Cl)cc3)c2n1`: the zone of inhibition at 1000 µg/mL in the test on Lactococcus lactis [1] was 15 mm; with Pseudomonas aeruginosa [3], 10 mm; with Staphylococcus aureus [4], 18 mm; with Candida albicans [7], 22 mm; in the test with Aspergillus flavus [8] it was 25 mm; in the test with Escherichia coli [10], 12 mm. The MIC against Staphylococcus aureus [2] was 40 µg/mL (≈ 143 µM); in the test on Candida albicans [5] (ATCC 14154, 24 h), 22 µg/mL (≈ 78.8 µM); in the test on Pseudomonas aeruginosa [6], 35 µg/mL (≈ 125 µM); against Escherichia coli [9], 50 µg/mL (≈ 179 µM); in the test on Lactococcus lactis [11], 35 µg/mL (≈ 125 µM). Besides, the IC50 turned out to be 1620 nM with HepG2, 1770 nM with MCF7 and 1520 nM in the test with HT-29.

As for `Cc1cc(C)n(C(=O)c2[nH]nc(-c3ccc(Cl)cc3)c2N)n1`, the zone of inhibition at 1000 µg/mL in the test with Lactococcus lactis [1] was found to be 30 mm; in the test with Pseudomonas aeruginosa [3], 20 mm; in the test with Staphylococcus aureus [4], 32 mm; with Candida albicans [7], 18 mm; with Aspergillus flavus [8], 26 mm; in the test with Escherichia coli [10] it was 22 mm. For the same molecule, the MIC in the test with Staphylococcus aureus [2] is 25 µg/mL (≈ 79.2 µM); against Pseudomonas aeruginosa [6], 15 µg/mL (≈ 47.5 µM); in the test with Escherichia coli [9], 20 µg/mL (≈ 63.3 µM); with Lactococcus lactis [11], 15 µg/mL (≈ 47.5 µM). The results for the IC50 in the test with HepG2, with MCF7 and with HT-29 were 1620 nM, 1450 nM and 1450 nM, respectively.

In the case of NYSTATIN, the results for the MIC against Candida albicans [5] and against Aspergillus flavus [12] were 20 µg/mL and 25 µg/mL, respectively. Moreover, the values for the inhibition zone (IZ) with Candida albicans [7] and in the test with Aspergillus flavus [8] were 25 mm and 30 mm, respectively.

As to `CO/N=C(\C(=O)N[C@@H]1C(=O)N2C(C(=O)O)=C(COC(C)=O)CS[C@H]12)c1csc(N)n1` [CEFOTAXIME], the zone of inhibition at 1000 µg/mL with Lactococcus lactis [1] was determined as 30 mm; in the test with Pseudomonas aeruginosa [3] it was 18 mm; with Staphylococcus aureus [4], 31 mm; in the test on Escherichia coli [10], 26 mm. Further, the MIC in the test with Staphylococcus aureus [2] came to 15 µg/mL (≈ 32.9 µM); in the test on Pseudomonas aeruginosa [6] it was 10 µg/mL (≈ 22 µM); with Escherichia coli [9], 13 µg/mL (≈ 28.5 µM); against Lactococcus lactis [11] it was 12 µg/mL (≈ 26.3 µM).

As to `NC(=S)NNC(=O)c1[nH]nc(-c2ccc(Cl)cc2)c1N`, the zone of inhibition at 1000 µg/mL is 30 mm with Lactococcus lactis [1]; 16 mm in the test with Pseudomonas aeruginosa [3]; 34 mm with Staphylococcus aureus [4]; 20 mm in the test with Candida albicans [7]; 25 mm in the test on Aspergillus flavus [8]; 22 mm in the test on Escherichia coli [10]. Further, the MIC worked out at 30 µg/mL (≈ 96.5 µM) against Staphylococcus aureus [2]; 50 µg/mL (≈ 161 µM) against Candida albicans [5] (ATCC 14154, 24 h); 45 µg/mL (≈ 145 µM) against Aspergillus flavus [12] (ATCC 23554, 24 h); 40 µg/mL (≈ 129 µM) against Pseudomonas aeruginosa [6]; 25 µg/mL (≈ 80.4 µM) in the test on Escherichia coli [9]; 35 µg/mL (≈ 113 µM) against Lactococcus lactis [11]. The results for the IC50 with HepG2, in the test with MCF7 and in the test on HT-29 were 4060 nM, 4350 nM and 5590 nM, respectively.

Consider `Cc1nn(C(=O)c2[nH]nc(-c3ccc(Cl)cc3)c2N)c(C)c1Cl`, for which the zone of inhibition at 1000 µg/mL came out at 16 mm in the test with Lactococcus lactis [1]; 13 mm in the test on Pseudomonas aeruginosa [3]; 15 mm in the test with Staphylococcus aureus [4]; 16 mm in the test with Candida albicans [7]; 20 mm in the test on Aspergillus flavus [8]; 15 mm in the test with Escherichia coli [10]. For the same molecule, the MIC against Staphylococcus aureus [2] was found to be 10 µg/mL (≈ 28.6 µM); against Candida albicans [5] (ATCC 14154, 24 h), 45 µg/mL (≈ 128 µM); in the test with Aspergillus flavus [12] (ATCC 23554, 24 h) it was 50 µg/mL (≈ 143 µM); with Pseudomonas aeruginosa [6], 10 µg/mL (≈ 28.6 µM); with Escherichia coli [9] it was 15 µg/mL (≈ 42.8 µM); in the test with Lactococcus lactis [11] it was 5 µg/mL (≈ 14.3 µM). Further, the figures for the IC50 with HepG2, in the test on MCF7 and with HT-29 were 970 nM, 780 nM and 1100 nM, respectively.

On to `Nn1c(=S)[nH]c2c(-c3ccc(Cl)cc3)n[nH]c2c1=O`, for which the zone of inhibition at 1000 µg/mL with Lactococcus lactis [1] is 15 mm; in the test on Pseudomonas aeruginosa [3], 10 mm; in the test on Staphylococcus aureus [4], 20 mm; with Candida albicans [7] it was 15 mm; with Aspergillus flavus [8] it was 25 mm; in the test with Escherichia coli [10] it was 8 mm. Moreover, the MIC with Staphylococcus aureus [2] was 20 µg/mL (≈ 68.1 µM); in the test on Candida albicans [5] (ATCC 14154, 24 h) it was 40 µg/mL (≈ 136 µM); in the test on Aspergillus flavus [12] (ATCC 23554, 24 h), 40 µg/mL (≈ 136 µM); against Pseudomonas aeruginosa [6] it was 15 µg/mL (≈ 51.1 µM); against Escherichia coli [9], 20 µg/mL (≈ 68.1 µM); against Lactococcus lactis [11], 20 µg/mL (≈ 68.1 µM). Moreover, the results for the IC50 with HepG2, in the test with MCF7 and in the test on HT-29 were 1550 nM, 840 nM and 1330 nM, respectively.

On to `Cc1csc(NNC(=O)c2[nH]nc(-c3ccc(Cl)cc3)c2N)n1`, for which the zone of inhibition at 1000 µg/mL with Lactococcus lactis [1] amounted to 22 mm; in the test on Pseudomonas aeruginosa [3] it was 12 mm; with Staphylococcus aureus [4] it was 28 mm; with Candida albicans [7], 26 mm; in the test on Aspergillus flavus [8], 28 mm; in the test with Escherichia coli [10], 16 mm. In addition, the MIC against Staphylococcus aureus [2] worked out at 15 µg/mL (≈ 43 µM); with Candida albicans [5] (ATCC 14154, 24 h), 40 µg/mL (≈ 115 µM); against Aspergillus flavus [12] (ATCC 23554, 24 h), 45 µg/mL (≈ 129 µM); with Pseudomonas aeruginosa [6] it was 15 µg/mL (≈ 43 µM); in the test on Escherichia coli [9] it was 20 µg/mL (≈ 57.3 µM); with Lactococcus lactis [11], 10 µg/mL (≈ 28.7 µM). The IC50 is 560 nM in the test on HepG2, 220 nM with MCF7 and 420 nM with HT-29.

For the molecule `CC1=NN(C(=O)c2[nH]nc(-c3ccc(Cl)cc3)c2N)C(=O)C1`, the zone of inhibition at 1000 µg/mL in the test with Lactococcus lactis [1] amounted to 26 mm; in the test with Pseudomonas aeruginosa [3], 20 mm; with Staphylococcus aureus [4], 32 mm; in the test with Candida albicans [7], 18 mm; in the test on Aspergillus flavus [8], 35 mm; with Escherichia coli [10], 22 mm. Further, the MIC amounted to 30 µg/mL (≈ 94.4 µM) against Staphylococcus aureus [2]; 35 µg/mL (≈ 110 µM) in the test with Candida albicans [5] (ATCC 14154, 24 h); 40 µg/mL (≈ 126 µM) in the test with Aspergillus flavus [12] (ATCC 23554, 24 h); 20 µg/mL (≈ 62.9 µM) against Pseudomonas aeruginosa [6]; 25 µg/mL (≈ 78.7 µM) against Escherichia coli [9]; 20 µg/mL (≈ 62.9 µM) against Lactococcus lactis [11]. The IC50 in the test on HepG2 was 2530 nM; in the test with MCF7, 2540 nM; in the test with HT-29, 2780 nM.
